{
  "source": "patent EP2039702A2",
  "about": "“Prodrugs erbeta-selective substances, method for their production and pharmaceutical compounds containing these compositions” (Bayer Schering Pharma Aktiengesellschaft, priority 2005, dated 2007)",
  "molecular_target": "humaner Carboanhydrase II (Homo sapiens, UniProt P00918)",
  "assay": "Carbonic anhydrase inhibition, photometric, nitrophenyl acetate conversion on microtitre plates",
  "assay_type": "biochemical",
  "conditions": "humane Carboanhydrase II; read-out: CAII IC50",
  "source_text": "Photometrische Bestimmung der Hemmung von humaner Carboanhydrase I oder II durch Sulfonamide oder Sulfamate auf Mikrotiterplatten mit Hilfe der enzymatischen Umwandlung von Nitrophenylacetat mit einem Farbumschlag von farblos nach gelb. Tabelle 1: IC50 Hemmwerte humaner Carboanhydrase I und II",
  "data": [
    {"smiles": "C[C@]12CC[C@@H]3c4ccc(OS(N)(=O)=O)cc4CC[C@H]3[C@@H]1CC[C@@H]2O", "note": "[Estradiol-3-sulfamat]", "values": [
      {"measurement": "IC50", "result": "0.0216 ± 0.0015", "unit": "µM"}
    ]}
  ]
}
